Laboratory results published in patent publication US20230374067A1, “NOVEL PEPTOIDS AND USE THEREOF FOR PREVENTING OR TREATING CHRONIC PAIN” (Université Clermont Auvergne, priority 2020, published 2023).
Square brackets hold non-standard residues; d marks the D form. Peptide text beside a SMILES is read from it. * marks the point of attachment. Gly(N-CH2CH2OH) = O=C(O)CNCCO; Nleu = CC(C)CNCC(=O)O; Bz = O=C(c1ccccc1)*

Legend:
[1] = tested on: OIPN mice (oxaliplatin-induced neuropathy model mice); assay: Oxaliplatin-induced acute neuropathy in mice, paw immersion test (cold hypersensitivity); type: in vivo
Description: (§1) Immersion test: The tail or paw was immersed in a water bath set at 10° C. or 46° C. until shrinkage was observed (cut-off time: 30 s). The average of two separate determinations of withdrawal latency was calculated (Janssen, Niemegeers & Dony, 1963).
Oxaliplatin-induced acute neuropathy in mice: Mice were injected intraperitoneally (i.p.) with 6 mg/kg oxaliplatin dissolved in 5% glucose directly after the first behavioral assessment. At 90 h after drug administration, corresponding to the time required to reach peak hyperalgesia (Descoeur et al., 2011), a second assessment of cold sensitivity and mechanical sensitivity was performed.

[2] = tested on: mice; assay: Rotarod test (locomotor activity); type: in vivo; settings: administered subcutaneously (2.5, 5, or 10 mg/kg, s.c.)
Description: Rotarod Test: For the Rotarod test (Bioseb), the animals were first habituated to remain on the stationary cylinder for 10 min before switching to another 10 min with a rotational speed of 4 rpm. The animals were given the drug immediately after training and the test was performed 30 min later. The test consisted of measuring the latency to fall of the animals as the rotation increased from 4 to 40 rpm linearly over 5 min. The average of the two closest values over 3 trials was calculated.

[3] = tested on: neuropathic rats; assay: Spinal nerve ligation induced neuropathy in rats, paw immersion test; type: in vivo; settings: neuropathy induced by traumatic nerve injury, intrathecal, 5 μg
Description: as §1
Spinal nerve ligation induced neuropathy in rats: According to the procedure of Kim and Chung (1992), rats were placed in the […] position and anesthetized with 10 mg/kg xylazine and 75 mg/kg ketamine (i.p). The fur on the left side of the spine was then shaved to expose the skin. The skin was cut parallel to the spine and the paravertebral muscles were separated. The L5 transverse apophysis was removed until the L5 spinal nerve was exposed. The L5 nerve was isolated and ligated with silk thread. Finally, the muscle and skin incisions were sutured and the wound was disinfected with iodophor and 75% ethyl alcohol. In the sham group, the rats underwent the same surgical procedure without the nerve ligation.

[4] = tested on: PTX rats; assay: Paclitaxel-induced neuropathy in rats (mechanical thresholds, paw immersion); type: in vivo; settings: rat model of paclitaxel-induced neuropathy, i.t., 0.2, 1 or 5 μg
Description: as §1
Paw pressure test in rats: Rats were subjected to the paw pressure test previously described by Randall and Selitto (1957). Nociceptive thresholds, expressed in grams, were measured with a Ugo Basile analgesic meter (Apelex, probe tip diameter 1 mm, weight 30 g) by applying increasing pressure to the right hind paw of the rats until a pain sign (vocalization threshold) was obtained (cut-off was 750 g). Before the treatments, the rats were habituated to the test by handling them without subjecting them to paw pressure. Then, after obtaining two consecutive stable vocalization threshold values, the treatment effects were evaluated after 15, 30, 45, 60, 90, and 120 min. Results are expressed as vocalization thresholds, in grams. […] Data were analyzed by a 2-way ANOVA followed by a Bonferroni test, when the time course of the effects was studied. A one-way ANOVA followed by a Student Newman-Keuls test was used to analyze the effect of the different treatments determined by the CSAs. The level of statistical significance was set at p<0.05. […]

[5] = target: T1, interaction between HCN and the TRIP8b tail (Homo sapiens, UniProt Q8IYB4); assay: Fluorescence polarization assay, disruption of TRIP8b-HCN interaction; type: binding; settings: compared with NUCC5953
T1 sequence (Q8IYB4 265-626 limits assumed): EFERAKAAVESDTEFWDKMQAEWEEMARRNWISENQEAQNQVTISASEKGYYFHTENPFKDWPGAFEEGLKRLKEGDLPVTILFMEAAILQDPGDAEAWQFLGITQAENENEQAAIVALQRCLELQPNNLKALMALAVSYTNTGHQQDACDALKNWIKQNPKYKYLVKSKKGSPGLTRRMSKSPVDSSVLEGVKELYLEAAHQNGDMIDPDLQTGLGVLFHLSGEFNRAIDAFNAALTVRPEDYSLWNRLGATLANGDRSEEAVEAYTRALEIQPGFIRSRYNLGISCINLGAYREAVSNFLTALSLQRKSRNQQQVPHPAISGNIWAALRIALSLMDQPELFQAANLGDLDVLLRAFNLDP
Excerpt: Fluorescence polarization assay: a fluorescence polarization (FP) based assay was used to identify compounds capable of disrupting the interaction between HCN and the TRIP8b tail, as published (Han et al., 2015).

| SMILES | analgesic effect ([1]; mouse, in vivo) | also measured |
| --- | --- | --- |
| CC(C)C[C@H](NC(=O)CCN(CCO)C(=O)CN(CCO)C(=O)CN(CC(C)C)C(=O)c1ccc([N+](=O)[O-])cc1)C(=O)O [LF108] | demonstrated an analgesic effect |  |
| Cc1ccc(C(=O)N(CC(=O)N(CCO)CC(=O)N(CCO)CCC(=O)N[C@@H](CC(C)C)C(=O)O)CC(C)C)cc1 [LF126] | demonstrated an analgesic effect |  |
| CC(C)C[C@H](NC(=O)CCN(CC(N)=O)C(=O)CN(CCO)C(=O)CN(CC(C)C)C(=O)c1ccccc1)C(=O)O [LF176] | demonstrated an analgesic effect |  |
| CC(C)C[C@H](NC(=O)CCN(CCO)C(=O)CN(CCO)C(=O)CN(CC(C)C)C(=O)c1ccc(C(F)(F)F)cc1)C(=O)O [LF188] | demonstrated an analgesic effect |  |
| CCCCN(CC(=O)N(CCO)CC(=O)N(CCO)CCC(=O)N[C@@H](CC(C)C)C(=O)O)C(=O)c1ccccc1 [LF222] | demonstrated an analgesic effect |  |
| CC(C)C[C@H](NC(=O)CCN(CCO)C(=O)CN(CCO)C(=O)CN(Cc1ccccc1)C(=O)C(C)C)C(=O)O [LF239] | demonstrated an analgesic effect |  |
| CC(C)C[C@H](NC(=O)CCN(CCO)C(=O)CN(CCO)C(=O)CN(CC(C)C)C(=O)c1ccc(F)cc1)C(=O)O [LF261] | demonstrated an analgesic effect |  |
| CC(C)C[C@H](NC(=O)CCN(CCO)C(=O)CN(CCO)C(=O)CN(C(=O)c1ccccc1)C(C)C)C(=O)O [LF295] | demonstrated an analgesic effect |  |
| CC(C)C[C@H](NC(=O)CCN(CCO)C(=O)CN(CCO)C(=O)CN(CC(C)(C)C)C(=O)c1ccccc1)C(=O)O [LF306] | demonstrated an analgesic effect |  |
| CC(C)C[C@H](NC(=O)CCN(CCO)C(=O)CN(CCN)C(=O)CN(CC(C)C)C(=O)c1ccccc1)C(=O)O [LF329] | demonstrated an analgesic effect |  |
| CC(=O)N(CCO)CC(=O)N(CCO)CCC(=O)N[C@@H](CC(C)C)C(=O)O [LF369] |  | analgesic effect ([1]; OIPN mice, 5 μg, i.t.): demonstrated an analgesic effect |
| Cc1cccc(C(=O)N(CC(=O)N(CCO)CC(=O)N(CCO)CCC(=O)N[C@@H](CC(C)C)C(=O)O)CC(C)C)c1 [LF400] | demonstrated an analgesic effect |  |
| CC(C)C[C@H](NC(=O)CCN(CCO)C(=O)CN(CCO)C(=O)CN(Cc1ccccc1)C(=O)c1ccccc1)C(=O)O [MP208] | demonstrated an analgesic effect |  |
| CC(C)C[C@H](NC(=O)CCN(CCO)C(=O)CN(CCO)C(=O)CN(CC(C)C)C(=O)Cc1ccccc1)C(=O)O [MP341] |  | analgesic effect ([1]; OIPN mice, 10 mg/kg, s.c.): demonstrated an analgesic effect |
| CC(C)C[C@H](NC(=O)CCN(CCCO)C(=O)CN(CCO)C(=O)CN(CC(C)C)C(=O)c1ccccc1)C(=O)O [MP354] |  | analgesic effect ([1]; OIPN mice, 10 mg/kg, s.c.): demonstrated an analgesic effect |
| CC(C)C[C@H](NC(=O)CCN(CCO)C(=O)CN(CCCO)C(=O)CN(CC(C)C)C(=O)c1ccccc1)C(=O)O [MP376] |  | analgesic effect ([1]; OIPN mice, 10 mg/kg, s.c.): demonstrated an analgesic effect |
| CC(C)C[C@H](NC(=O)CN(CCO)C(=O)CN(CCO)C(=O)CN(CC(C)C)C(=O)c1ccccc1)C(=O)O [MP405] (Bz-[Nleu][Gly(N-CH2CH2OH)][Gly(N-CH2CH2OH)]L-OH) | demonstrated an analgesic effect |  |
| CC(C)C[C@H](NC(=O)CCN(CCO)C(=O)CN(CCO)C(=O)CN(CC(C)C)C(=O)c1ccccc1)C(=O)O [YC55] |  | alteration in locomotor activity [2]: No alteration in locomotor activity; antihyperalgesic effect [3]: antihyperalgesic effect; dose-dependent analgesic effect [4]: dose-dependent analgesic effect; potency in disrupting the TRIP8b-HCN interaction [5]: equal potency to NUCC5953; dose-dependent analgesic effect / reversal of oxaliplatin-induced acute cold hypersensitivity ([1]; OIPN mice, i.t., 0.2, 1, 5 μg/mouse): dose-dependent analgesic effect; dose-dependent analgesic effect ([1]; OIPN mice, s.c., 2.5, 5 or 10 mg/kg): dose-dependent analgesic effect |
